The structures appear in SMILES notation. Structures can show the parent of a compound that is named as a salt.

For assay [1], the target named is T1, human EP1 receptor (Homo sapiens, UniProt P34995).
T1 sequence (P34995 1-402): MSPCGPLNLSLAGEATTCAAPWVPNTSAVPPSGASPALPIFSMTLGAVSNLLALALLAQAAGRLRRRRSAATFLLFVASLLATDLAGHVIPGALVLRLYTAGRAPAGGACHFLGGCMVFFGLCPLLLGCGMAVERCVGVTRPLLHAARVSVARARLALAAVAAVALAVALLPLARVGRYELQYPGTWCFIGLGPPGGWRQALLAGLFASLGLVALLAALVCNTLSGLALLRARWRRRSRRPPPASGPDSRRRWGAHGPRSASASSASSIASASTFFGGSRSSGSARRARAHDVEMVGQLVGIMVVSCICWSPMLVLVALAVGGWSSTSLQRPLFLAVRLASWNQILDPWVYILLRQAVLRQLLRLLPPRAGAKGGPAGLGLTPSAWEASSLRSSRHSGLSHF
Briefly: human EP1 calcium mobilisation assay. Also noted: expressed in transfected cells. The format is cell-based. The conditions noted are these: CHO-K1 cells, antagonism of PGE2; averages of a number of experiments; read-out: functional pKi value (human EP1 calcium mobilisation assay) (converted). The method, then: (§1) Briefly, the antagonist properties of compounds are assessed by their ability to inhibit the mobilisation of intracellular calcium ([Ca^2+]i) in response to activation of EP1 or EP3 receptors by the natural agonist hormone prostaglandin E2 (PGE2). Increasing concentrations of antagonist reduce the amount of calcium that a given concentration of PGE2 can mobilise. The net effect is to displace the PGE2 concentration-effect curve to higher concentrations of PGE2. The amount of calcium produced is assessed using a calcium-sensitive fluorescent dye such as Fluo-4, AM and a suitable instrument such as a Fluorimetric Imaging Plate Reader (FLIPR). Increasing amounts of [Ca^2+]i produced by receptor activation increase the amount of fluorescence produced by the dye and give rise to an increasing signal. The signal may be detected using the FLIPR instrument and the data generated may be analysed with suitable curve-fitting software.
(§2) The human EP1 or EP3 calcium mobilisation assay (hereafter referred to as ‘the calcium assay’) utilises Chinese hamster ovary-K1 (CHO-K1) cells into which a stable (PCIN; BioTechniques 20 (1996): 102-110) vector containing either EP1 or EP3 cDNA has previously been transfected. Cells are cultured in suitable flasks containing culture medium such as DMEM:F-12 supplemented with 10% v/v foetal calf serum, 2 mM L-glutamine, 0.25 mg/ml geneticin, 100 μM flurbiprofen and 10 μg/ml puromycin.
(§3) For assay, cells are harvested using a proprietary reagent that dislodges cells such as Versene. Cells are re-suspended in a suitable quantity of fresh culture media for introduction into a 384-well plate. Following incubation for 24 hours at 37° C. the culture media is replaced with a medium containing Fluo-4 and the detergent pluronic acid, and a further incubation takes place. Concentrations of compounds are then added to the plate in order to construct concentration-effect curves. This may be performed on the FLIPR in order to assess the agonist properties of the compounds. Concentrations of PGE2 are then added to the plate in order to assess the antagonist properties of the compounds.
(§4) The data so generated may be analysed by means of a computerised curve-fitting routine. The concentration of compound that elicits a half-maximal inhibition of the calcium mobilisation induced by PGE2 (pIC50) may then be estimated.
Background: A change in cytosolic calcium serves as a functional read-out for many receptors and channels.

Assay [2] has as its target T2, human EP3 receptor (Homo sapiens, UniProt P43115).
T2 construct: expressed in transfected cells; host or cells: CHO-K1
T2 sequence (P43115 1-390): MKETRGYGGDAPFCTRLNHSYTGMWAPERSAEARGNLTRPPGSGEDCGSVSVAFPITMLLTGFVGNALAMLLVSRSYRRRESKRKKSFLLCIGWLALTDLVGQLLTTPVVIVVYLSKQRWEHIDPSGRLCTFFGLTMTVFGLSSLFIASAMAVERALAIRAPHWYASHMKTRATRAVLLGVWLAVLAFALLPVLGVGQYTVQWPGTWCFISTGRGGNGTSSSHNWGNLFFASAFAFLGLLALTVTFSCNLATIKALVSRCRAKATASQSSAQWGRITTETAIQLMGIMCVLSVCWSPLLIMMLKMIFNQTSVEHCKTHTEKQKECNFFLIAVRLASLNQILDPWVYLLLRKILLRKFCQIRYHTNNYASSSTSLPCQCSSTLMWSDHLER
As to the kind of experiment: human EP3 calcium mobilisation assay. The conditions noted are these: CHO-K1 cells, antagonism of PGE2; averages of a number of experiments; read-out: functional pKi value (human EP3 calcium mobilisation assay) (converted). It counts as cell-based. As for the experimental part: as §1, §2, §3, §4

Assay [3] concerns the target T1, human EP1 receptor. Briefly: Binding assay for the human prostanoid EP1 receptor (radioligand competition). Also noted: expressed in transfected cells; host or cells: CHO-K1 (membranes). The following applies: CHO-K1 membranes; [3H]-PGE2 for Examples 1-17, 19, 33, 34, 60 and 61, 3-{2-[5-Bromo-2-(2,4-difluorobenzyloxy)-phenyl]-5-methyl-pyrrol-1-yl}-6-[3H3-methoxy]methoxy-benzoic acid for the remaining; averages of a number of experiments; read-out: pIC50 value (binding assay for the human prostanoid EP1 receptor) (converted). The method, then:
Compound potencies are determined using a radioligand binding assay. In this assay compound potencies are determined from their ability to compete with tritiated prostaglandin E2 ([^3H]-PGE2) for binding to the human EP1 receptor.
This assay utilises Chinese hamster ovary-K1 (CHO-K1) cells into which a stable vector containing the EP1 cDNA has previously been transfected. Cells are cultured in suitable flasks containing culture medium such as DMEM:F-12 supplemented with 10% v/v foetal calf serum, 2 mM L-glutamine, 0.25 mg/ml geneticin, 10 μg/ml puromycin and 10 μM indomethacin.
Cells are detached from the culture flasks by incubation in calcium and magnesium free phosphate buffered saline containing 1 mM disodium ethylenediaminetetraacetic acid (Na2EDTA) and […] indomethacin for 5 min. The cells are isolated by centrifugation at 250×g for 5mins and suspended in an ice cold buffer such as 50 mM Tris, 1 mM Na2EDTA, 140 mM NaCl, 10 μM indomethacin (pH 7.4). The cells are homogenised using a Polytron tissue disrupter (2×10 s burst at full setting), centrifuged at 48,000×g for 20mins and the pellet containing the membrane fraction is washed (optional) three times by suspension and centrifugation at 48,000×g for 20mins. The final membrane pellet is suspended in an assay buffer such as 10 mM 2-[N-morpholino]ethanesulphonic acid, 1 mM Na2EDTA, 10 mM MgCl2 (pH 6). Aliquots are frozen at −80° C. until required.
For the binding assay the cell membranes, competing compounds and [^3H]-PGE2 (3 nM final assay concentration) are incubated in a final volume of 100 μl for 30 min at 30° C. All reagents are prepared in assay buffer. Reactions are terminated by rapid vacuum filtration over GF/B filters using a Brandell cell harvester. The filters are washed with ice cold assay buffer, dried and the radioactivity retained on the filters is measured by liquid scintillation counting in Packard TopCount scintillation counter.
The data are analysed using non linear curve fitting techniques to determine the concentration of compound producing 50% inhibition of specific binding (IC50).
Alternatively a similar assay may be carried out using 3-{2-[5-Bromo-2-(2,4-difluoro-benzyloxy)-phenyl]-5-methyl-pyrrol-1-yl}-6-[^3H3-methoxy]methoxy-benzoic acid instead of [^3H]-PGE2.
For the binding assay using 3-{2-[5-Bromo-2-(2,4-difluoro-benzyloxy)-phenyl]-5-methyl-pyrrol-1-yl}-6-[^3H3-methoxy]methoxy-benzoic acid instead of [^3H]-PGE2 the assay is carried out using a similar procedure to that described above using [^3H]-PGE2 with the following changes:
The cell membranes, competing compounds and 3-{2-[5-Bromo-2-(2,4-difluoro-benzyloxy)-phenyl]-5-methyl-pyrrol-1-yl}-6-[^3H3-methoxy]methoxy-benzoic acid (0.2 nM final assay concentration) are incubated in a final volume of 400 μl for 45 min at 37° C. All reagents are prepared in assay buffer. Reactions are terminated by rapid vacuum filtration over GF/B filters using a Brandell cell harvester. The filters are washed with water at ambient temperature, dried and the radioactivity retained on the filters is measured by liquid scintillation counting in Packard TopCount scintillation counter.
The preparation of 3-{2-[5-Bromo-2-(2,4-difluoro-benzyloxy)-phenyl]-5-methyl-pyrrol-1-yl}-6-methoxy-benzoic acid is described in WO 03/101959 and in Hall et al, Biorg. Med. Chem. Lett., 2007, 17, 916-920. The tritiated version may be prepared via conventional routes, e.g. from 3-{2-[5-bromo-2-(2,4-difluoro-benzyloxy)-phenyl]-5-methyl-pyrrol-1-yl}-6-hydroxy-benzoic acid or 3-{2-[5-bromo-2-(2,4-difluoro-benzyloxy)-phenyl]-5-methyl-pyrrol-1-yl}-6-hydroxy-benzoic acid methyl ester.
(In general: In a radioligand displacement assay an active substance lowers the binding of a labelled ligand.)

As for `Cc1cc(NC(=O)OCC2CCNCC2)nn1Cc1cc(Cl)cc2cc(C(C)C)oc12` [Example 4, 4-Piperidinylmethyl (1-{[5-chloro-2-(1-methylethyl)-1-benzofuran-7-yl]methyl}-5-methyl-1H-pyrazol-3-yl)carbamate Hydrochloride], the Ki in assay [1] is at most 316 nM; in assay [2], 501 to 10000 nM.
Regarding `Cc1cc(C(=O)O)nn1Cc1cc(Cl)cc2cc(C(C)(C)C)oc12` [Example 27, 1-{[5-Chloro-2-(1,1-dimethylethyl)-1-benzofuran-7-yl]methyl}-5-methyl-1H-pyrazole-3-carboxylic Acid], in assay [1], the Ki was at most 316 nM. The IC50 in assay [3] was at most 100 nM.
In the case of `Cc1cc(C(=O)NC2CCOCC2)nn1Cc1cc(Cl)cc2cc(C3CCCCC3)oc12` [Example 29, 1-[(5-Chloro-2-cyclohexyl-1-benzofuran-7-yl)methyl]-5-methyl-N-(tetrahydro-2H-pyran-4-yl)-1H-pyrazole-3-carboxamide], the Ki in assay [1] is at most 316 nM. Further, the IC50 in assay [3] was at most 100 nM.
In the case of `Cc1cc(C(=O)N2CCOCC2)nn1Cc1cc(Cl)cc2cc(C3CC3)oc12` [Example 32, 4-({1-[(5-chloro-2-cyclopropyl-1-benzofuran-7-yl)methyl]-5-methyl-1H-pyrazol-3-yl}carbonyl)morpholine], the Ki is at most 316 nM in assay [1] and 501 to 10000 nM in assay [2].
Turning to `CC(C)c1cc2cc(Cl)cc(Cc3ccc(C(N)=O)o3)c2o1` [Example 37, 5-{[5-Chloro-2-(1-methylethyl)-1-benzofuran-7-yl]methyl}-2-furancarboxamide], the Ki in assay [1] is at most 316 nM. Further, the IC50 in assay [3] was at most 100 nM.
Take `CC(C)NC(=O)c1ccc(Cc2cc(Cl)cc3cc(C(C)C)oc23)o1` [Example 38, 5-{[5-Chloro-2-(1-methylethyl)-1-benzofuran-7-yl]methyl}-N-(1-methylethyl)-2-furancarboxamide]: the Ki in assay [2] was 501 to 10000 nM.
As to `CC(C)c1cc2cc(Cl)cc(Cc3ccc(C(=O)NN(C)C)o3)c2o1` [Example 39, 5-{[5-Chloro-2-(1-methylethyl)-1-benzofuran-7-yl]methyl}-N′,N′-dimethyl-2-furancarbohydrazide], the figures for the Ki in assay [1] and in assay [2] were at most 316 nM and 501 to 10000 nM, respectively.
As to `CC(C)c1cc2cc(Cl)cc(Cc3cccc(C(=O)NCC4CCNCC4)n3)c2o1` [Example 47, 6-{[5-Chloro-2-(1-methylethyl)-1-benzofuran-7-yl]methyl}-N-(4-piperidinylmethyl)-2-pyridinecarboxamidehydrochloride], the Ki in assay [2] was 501 to 10000 nM.
As to `CC(C)c1cc2cc(Cl)cc(Cc3ccc(C(=O)NCC4CCNCC4)o3)c2o1` [Example 48], the Ki in assay [1] is 1000 to 1580 nM. In addition, the IC50 in assay [3] is at most 100 nM.
Turning to `CNCc1ccc(NC(=O)c2cc(C)n(Cc3cc(Br)cc4cc(C(C)C)oc34)n2)cc1` [Example 50, 1-{[5-Bromo-2-(1-methylethyl)-1-benzofuran-7-yl]methyl}-5-methyl-N-{4-[(methylamino)methyl]phenyl}-1H-pyrazole-3-carboxamidehydrochloride], the Ki in assay [1] was at most 316 nM. Further, in assay [3], the IC50 is at most 100 nM.
As for `Cc1cc(C(=O)Nc2ccc(CN3CCOCC3)cc2)nn1Cc1cc(Br)cc2cc(C(C)C)oc12` [Example 52, 1-{[5-Bromo-2-(1-methylethyl)-1-benzofuran-7-yl]methyl}-5-mthyl-N-[4-(4-morpholinylmethyl)phenyl]-1H-pyrazole-3-carboxamidehydrochloride], the Ki in assay [1] is at most 316 nM. Moreover, in assay [3], the IC50 was at most 100 nM.
Take `Cc1cc(C(=O)NC2CCOCC2)nn1Cc1cc(Cl)cc2cc(C(C)C)oc12` [Example 60, 1-{[5-chloro-2-(1-methylethyl)-1-benzofuran-7-yl]methyl}-5-methyl-N-(tetrahydro-2H-pyran-4-yl)-1H-pyrazole-3-carboxamide]: in assay [1], the Ki is at most 316 nM. Besides, the IC50 in assay [3] is at most 100 nM.
In the case of `Cc1cc(NC(=O)C(C)C)nn1Cc1cc(C#N)cc2cc(C(C)C)oc12` [Example 68, N-(1-{[5-Cyano-2-(1-methylethyl)-1-benzofuran-7-yl]methyl}-5-methyl-1H-pyrazol-3-yl)-2-methylpropanamide], the Ki in assay [1] is at most 316 nM. In assay [3], the IC50 is at most 100 nM.

These data come from patent US20090099169A1, “Benzofuran Compounds As EP1 Receptor Antagonists” (GLAXO GROUP LIMITED, priority 2006, published 2009).
